# Target: T1, KRAS G12D (Homo sapiens, UniProt P01116, G12D)
# T1 construct: host or cells: AsPC-1 human pancreatic cancer cells
# Experiment: Test Example 1-2: KRAS degradation action in AsPC-1, Cell ELISA
# Assay type: cell-based
# Conditions: AsPC-1 cells, overnight treatment, corrected with β-actin, 0% = 10 μM Example No. 26 (Example No. 8 for Example Nos. 74 and 75)
# Description: Test Example 1-2: Evaluation of KRAS Degradation Action on Human G12D Mutant KRAS-Positive Pancreatic Cancer Line AsPC-1
# The KRAS degradation action of test compounds was evaluated by measuring the expression levels of KRAS G12D by Cell ELISA.
# […] As for the cell culture conditions, a RPMI 1640 medium containing 10% fetal bovine serum was used in the presence of 5% CO2 at 37° C. The next day, the test compounds (10 points having final concentrations in the range of 10 μM to 0.3 nM), the compound of Example No. 26 (Example No. 8 for Example Nos. 74 and 75) of a final concentration of 10 μM as a positive control and DMSO, which was the solvent for the test compounds, as a negative control were diluted 500-fold with a fresh medium and were added at 20 μL per well. The cells were cultured overnight.
# The next day, the culture supernatant was removed, and 4% paraformaldehyde phosphate buffer (from FUJIFILM Wako Pure Chemical Corporation) was added at 20 μL per well. The plate was allowed to stand for 30 minutes at room temperature to thus immobilize the cells. Then, the supernatant was removed, and 0.1% Triton X-100 (from Amersham Biosciences)-containing PBS was added at 20 μL per well. After allowing to stand for 10 minutes at room temperature, the supernatant was removed. PBS was added at 25 μL per well, and the supernatant was removed to thus wash each well. The washing was performed twice in total. Next, the supernatant was removed, and 0.5% sodium dodecyl sulfate (SDS; from Invitrogen)-containing PBS was added at 20 μL per well. After allowing to stand at room temperature for 10 minutes, the supernatant was removed by centrifugation (using a centrifugal dehydrator machine, the supernatant was removed by the same method hereinafter). PBS was added at 25 μL per well, and the supernatant was removed to thus wash each well. The washing was performed twice in total. The supernatant was removed by centrifugation, and a blocking solution (Intercept Blocking Buffer) was added at 20 μL per well. After allowing to stand for 30 minutes at room temperature, the supernatant was removed by centrifugation, and a solution obtained by diluting an anti-Ras (G12D Mutant Specific) antibody and an anti-3-actin antibody 1,000-fold with a blocking solution was added at 20 μL per well as a primary antibody. The plate was allowed to stand overnight at 4° C.
# The next day, the plate was centrifuged to remove the supernatant. PBS was added at […], and the supernatant was removed to thus wash each well. The washing was performed twice in total. The supernatant was removed by centrifugation, and a solution obtained by diluting Donkey anti-Mouse IgG H&L (TRDye 680RD) (from Li—COR Biosciences) and Goat anti-Rabbit IgG H&L (IRDye 800CW) (from Li—COR Biosciences) 1,000-fold with a blocking solution was added at 20 μL per well as a secondary antibody. After allowing to stand for 1 hour at room temperature, the supernatant was removed. PBS was added at 25 μL per well, and the supernatant was removed to thus wash each well. The washing was performed twice in total. After removing the supernatant by centrifuging the plate, the plate was dried as it was with air at room temperature for 2 hours or more, and the 700-nm and 800-nm fluorescent signals were measured with Aerius (from LI-COR Biosciences).
# With the signaling value at the time of addition of DMSO corrected with the signaling value of β-actin taken as 100% and with the signaling value at the time of addition of 10 μM of the compound of Example No. 26 taken as 0%, the 50% degradation values (DC50) of the amounts of KRAS were calculated by Sigmoid-Emax model nonlinear regression analysis. The molecular weights of the test compounds were calculated as the molecular weights of the trihydrochloride for Example No. 30, the tetrahydrochloride for Example No. 46 and the free forms forming no salt for the remaining Example Nos. The results for some test compounds of the formula (I) are shown in Table 2.
# T1 sequence (P01116 1-188 isoform P01116-2 G12D): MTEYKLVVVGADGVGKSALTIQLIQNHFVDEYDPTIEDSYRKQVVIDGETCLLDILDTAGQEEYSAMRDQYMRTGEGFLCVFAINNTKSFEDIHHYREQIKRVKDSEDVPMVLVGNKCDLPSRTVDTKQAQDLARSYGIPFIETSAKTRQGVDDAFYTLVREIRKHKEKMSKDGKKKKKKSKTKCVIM
row,SMILES,DC50 [nM]
1,Cc1c(F)cc2[nH]ncc2c1-c1c(C2CC2)cc2c(N3C[C@@H]4C[C@H]3CN4)nc(OC3CCOCC3)nc2c1OCc1ccc(-c2cn([C@H](C(=O)N3C[C@H](O)C[C@H]3C(=O)N[C@@H](CO)c3ccc(-n4ccnc4C)cc3)C(C)C)nn2)cc1 [Example 69],31
2,Cc1ncsc1-c1ccc([C@H](CO)NC(=O)[C@@H]2C[C@@H](O)CN2C(=O)[C@H](C(C)C)n2cc(-c3ccc(COc4c(-c5c(C)c(F)cc6[nH]ncc56)c(C5CC5)cc5c(N6C[C@@H]7C[C@H]6CN7)nc(OC[C@H]6CCOC6)nc45)cc3)nn2)cc1 [Example 51],11
3,Cc1ncoc1-c1ccc([C@H](CO)NC(=O)[C@@H]2C[C@@H](O)CN2C(=O)[C@H](C(C)C)n2cc(-c3ccc(COc4c(-c5c(C)c(F)cc6[nH]ncc56)c(C5CC5)cc5c(N6C[C@@H]7C[C@H]6CN7)nc(OC6CCOCC6)nc45)cc3)nn2)cc1 [Example 38],53
4,Cc1ncsc1-c1ccc([C@H](CO)NC(=O)[C@@H]2C[C@@H](O)CN2C(=O)[C@H](C(C)C)n2cc(-c3ccc(COc4c(-c5c(C)c(F)cc6[nH]ncc56)c(C5CC5)cc5c(N6C[C@@H]7C[C@H]6CN7)nc(OC[C@H]6CCCN6C)nc45)cc3)nn2)cc1 [Example 60],102
5,Cc1ncsc1-c1ccc([C@@H](CO)NC(=O)[C@@H]2C[C@@H](O)CN2C(=O)[C@H](C(C)C)n2cc(-c3ccc(COc4c(-c5c(C)c(F)cc6[nH]ncc56)c(C5CC5)cc5c(N6C[C@@H]7C[C@H]6CN7)nc(OC6CCOCC6)nc45)cc3)nn2)cc1 [Example 68],1390
6,COCC1(COc2nc(N3C[C@@H]4C[C@H]3CN4)c3cc(C4CC4)c(-c4c(C)c(F)cc5[nH]ncc45)c(OCc4ccc(-c5cn([C@H](C(=O)N6C[C@H](O)C[C@H]6C(=O)N[C@@H](CO)c6ccc(-c7scnc7C)cc6)C(C)C)nn5)cc4)c3n2)CC1 [Example 62],10
7,Cc1ncsc1-c1ccc([C@H](CO)NC(=O)[C@@H]2C[C@@H](O)CN2C(=O)[C@H](C(C)C)n2cc(-c3ccc(COc4c(-c5c(C)c(F)cc6[nH]ncc56)c(C5CC5)cc5c(N6C[C@@H]7C[C@H]6CN7)nc(OC[C@@H]6CCCN6C)nc45)cc3)nn2)cc1 [Example 57],134
8,Cc1ncsc1-c1ccc([C@H](CO)NC(=O)[C@@H]2C[C@@H](O)CN2C(=O)[C@H](C(C)C)n2cc(-c3ccc(COc4c(-c5c(C)c(F)cc6[nH]ncc56)c(C5CC5)cc5c(N6C[C@@H]7C[C@H]6CN7)nc(OC6CCOCC6)nc45)cc3)nn2)nc1 [Example 35],84
9,CO[C@H](C)COc1nc(N2C[C@@H]3C[C@H]2CN3)c2cc(C3CC3)c(-c3c(C)c(F)cc4[nH]ncc34)c(OCc3ccc(-c4cn([C@H](C(=O)N5C[C@H](O)C[C@H]5C(=O)N[C@@H](CO)c5ccc(-c6scnc6C)cc5)C(C)C)nn4)cc3)c2n1 [Example 47],13
10,Cc1ncsc1-c1ccc([C@H](CO)NC(=O)[C@@H]2C[C@@H](O)CN2C(=O)[C@H](C(C)C)n2cc(-c3ccc(COc4c(-c5c(C)c(F)cc6[nH]ncc56)c(C5CC5)cc5c(N6C[C@@H]7C[C@H]6CN7)nc(O[C@@H]6CCN(CC(F)F)C6)nc45)cc3)nn2)cc1 [Example 34],24
11,Cc1ncsc1-c1ccc([C@H](CO)NC(=O)[C@@H]2C[C@@H](O)CN2C(=O)[C@H](C(C)C)n2cc(-c3ccc(COc4c(-c5c(C)c(F)cc6[nH]ncc56)c(C5CC5)cc5c(N6C[C@@H]7C[C@H]6CN7)nc(OCC6(CO)CC6)nc45)cc3)nn2)cc1 [Example 61],21
12,"Cc1ncsc1-c1ccc([C@H](CO)NC(=O)[C@@H]2C[C@@H](O)CN2C(=O)[C@H](C(C)C)n2cc(-c3ccc(COc4c(-c5c(C)c(F)cc6[nH]ncc56)c(C5CC5)cc5c(N6C[C@@H]7C[C@H]6CN7)nc(OC6CCOCC6)nc45)cc3F)nn2)cc1 [Example 49, (4R)-1-[(2S)-2-(4-{4-[({6-cyclopropyl-4-[(1S,4S)-2,5-diazabicyclo[2.2.1]heptan-2-yl]-7-(6-fluoro-5-methyl-1H-indazol-4-yl)-2-[(oxan-4-yl)oxy]quinazolin-8-yl}oxy)methyl]-2-fluorophenyl}-1H-1,2,3-triazol-1-yl)-3-methylbutanoyl]-4-hydroxy-N-{(1R)-2-hydroxy-1-[4-(4-methyl-1,3-thiazol-5-yl)phenyl]ethyl}-L-prolinamide]",15
13,Cc1ncsc1-c1ccc([C@H](CO)NC(=O)[C@@H]2C[C@@H](O)CN2C(=O)[C@H](C(C)C)n2cc(-c3ccc(COc4c(-c5c(C)c(F)cc6[nH]ncc56)c(C5CC5)cc5c(N6C[C@@H]7C[C@H]6CN7)nc(OC[C@@H]6CCOC6)nc45)cc3)nn2)cc1 [Example 53],8
14,Cc1ncsc1-c1ccc([C@H](CO)NC(=O)[C@@H]2C[C@@H](O)CN2C(=O)[C@H](C(C)C)n2cc(-c3ccc(COc4c(-c5c(C)c(F)cc6[nH]ncc56)c(C5CC5)cc5c(N6C[C@@H]7C[C@H]6CN7)nc(OC[C@H]6CCOC6)nc45)cc3)nn2)cc1 [Example 52],10
15,COC[C@H](C)Oc1nc(N2C[C@@H]3C[C@H]2CN3)c2cc(C3CC3)c(-c3c(C)c(F)cc4[nH]ncc34)c(OCc3ccc(-c4cn([C@H](C(=O)N5C[C@H](O)C[C@H]5C(=O)N[C@@H](CO)c5ccc(-c6scnc6C)cc5)C(C)C)nn4)cc3)c2n1 [Example 54],8
16,Cc1ncsc1-c1ccc([C@H](CO)NC(=O)[C@@H]2C[C@@H](O)CN2C(=O)[C@H](C(C)C)n2cc(-c3ccc(COc4c(-c5c(C)c(F)cc6[nH]ncc56)c(C5CC5)cc5c(N6C[C@@H]7C[C@H]6CN7)nc(O[C@@H](C)[C@H](C)O)nc45)cc3)nn2)cc1 [Example 42],6
17,Cc1ncsc1-c1ccc([C@H](CO)NC(=O)[C@@H]2C[C@@H](O)CN2C(=O)[C@H](C(C)C)n2cc(-c3ccc(COc4c(-c5c(C)c(F)cc6[nH]ncc56)c(C5CC5)cc5c(N6C[C@@H]7C[C@H]6CN7)nc(NCCO)nc45)cc3)nn2)cc1 [Example 66],250
18,COC[C@@H](C)Oc1nc(N2C[C@@H]3C[C@H]2CN3)c2cc(C3CC3)c(-c3c(C)c(F)cc4[nH]ncc34)c(OCc3ccc(-c4cn([C@H](C(=O)N5C[C@H](O)C[C@H]5C(=O)N[C@@H](CO)c5ccc(-c6scnc6C)cc5)C(C)C)nn4)cc3)c2n1 [Example 40],5
19,Cc1ncsc1-c1ccc([C@H](CO)NC(=O)[C@@H]2C[C@@H](O)CN2C(=O)[C@H](C(C)C)n2cc(-c3ccc(COc4c(-c5c(C)c(F)cc6[nH]ncc56)c(C5CC5)cc5c(N6C[C@@H]7C[C@H]6CN7)nc(OC[C@H](C)N6CCCC6)nc45)cc3)nn2)cc1 [Example 64],48
20,CO[C@@H](C)COc1nc(N2C[C@@H]3C[C@H]2CN3)c2cc(C3CC3)c(-c3c(C)c(F)cc4[nH]ncc34)c(OCc3ccc(-c4cn([C@H](C(=O)N5C[C@H](O)C[C@H]5C(=O)N[C@@H](CO)c5ccc(F)cc5)C(C)C)nn4)cc3)c2n1 [Example 58],37
21,COCCN1CC[C@H](Oc2nc(N3C[C@@H]4C[C@H]3CN4)c3cc(C4CC4)c(-c4c(C)c(F)cc5[nH]ncc45)c(OCc4ccc(-c5cn([C@H](C(=O)N6C[C@H](O)C[C@H]6C(=O)N[C@@H](CO)c6ccc(-c7scnc7C)cc6)C(C)C)nn5)cc4)c3n2)C1 [Example 32],139
22,CO[C@@H](C)[C@H](C)Oc1nc(N2C[C@@H]3C[C@H]2CN3)c2cc(C3CC3)c(-c3c(C)c(F)cc4[nH]ncc34)c(OCc3ccc(-c4cn([C@H](C(=O)N5C[C@H](O)C[C@H]5C(=O)N[C@@H](CO)c5ccc(-c6scnc6C)cc5)C(C)C)nn4)cc3)c2n1 [Example 41],9
23,CO[C@@H](C)COc1nc(N2C[C@@H]3C[C@H]2CN3)c2cc(C3CC3)c(-c3c(C)c(F)cc4[nH]ncc34)c(OCc3ccc(-c4cn([C@H](C(=O)N5C[C@H](O)C[C@H]5C(=O)N[C@@H](CO)c5ccc(-n6ccnc6C)cc5)C(C)C)nn4)cc3)c2n1 [Example 71],35

# From patent US20250340561A1, “QUINAZOLINE COMPOUND FOR INDUCING DEGRADATION OF G12D MUTANT KRAS PROTEIN” (Astellas Pharma Inc., priority 2021, published 2025)
